From ChEMBL document CHEMBL1153976, “Synthesis and cytotoxicity of 2-cyano-28-hydroxy-lup-1-en-3-ones” (Bioorg Med Chem Lett, 2009) come the findings set out here.

One test relates to A-375. Nature of the test: Antiproliferative activity against human A375 cells after 72 hrs by MTS assay. It counts as functional, cell-based. As to conditions: A-375, 72 h.
The subject of test [1] is SK-MEL-2. Nature of the test: Induction of apoptosis in human SK-MEL-2 cells assessed as increase in caspase activation at 5 uM after 8 hrs by homogenous assay relative to control. The format is functional.
The subject of a further test is OVCAR-3. Nature of the test: Antiproliferative activity against human OVCAR-3 cells after 120 hrs by MTS assay. It counts as functional, cell-based. Particulars: OVCAR-3, 120 h.
For test [2], the system named is SK-MEL-2. The experiment in a line: Antiproliferative activity against human SK-MEL-2 cells after 72 hrs by MTS assay. The format is functional, cell-based. As to conditions: SK-MEL-2, 72 h. Background: Formazan colour is commonly taken as a measure of viable cells.
The test system of test [3] is SK-MEL-2. The experiment in a line: Induction of apoptosis in human SK-MEL-2 cells assessed as increase in caspase activation at 50 uM after 8 hrs by homogenous assay relative to control. It counts as functional.
The next test concerns HT-29. Nature of the test: Antiproliferative activity against human HT-29 cells after 72 hrs by MTS assay. The format is functional, cell-based. Particulars: HT-29, 72 h.
A further test has as its system MCF7. Nature of the test: Antiproliferative activity against human MCF7 cells after 72 hrs by MTS assay. The format is functional, cell-based. As to conditions: MCF7, 72 h.
For the next test, the system named is Daoy. The experiment in a line: Antiproliferative activity against human DaOY cells after 72 hrs by MTS assay. The format is cell-based.
Test [4] is described as follows: Antiproliferative activity against human LN229 cells after 72 hrs by MTS assay. It counts as functional, cell-based. As to conditions: LN-229, 72 h.
Test [5] deals with SK-MEL-2. Nature of the test: Induction of apoptosis in human SK-MEL-2 cells assessed as necrotic cells at 50 uM after 8 hrs by annexin V assay in presence of z-VAD. The format is functional.
The test system of test [6] is SK-MEL-2. Nature of the test: Induction of apoptosis in human SK-MEL-2 cells assessed as apoptotic cells at 50 uM after 8 hrs by annexin V assay. It counts as functional.
Test [7] relates to SK-MEL-2. Nature of the test: Induction of apoptosis in human SK-MEL-2 cells assessed as apoptotic cells at 50 uM after 8 hrs by annexin V assay in presence of z-VAD. The format is functional.
In test [8] the test system is SK-MEL-2. The experiment in a line: Induction of apoptosis in human SK-MEL-2 cells assessed as necrotic cells at 50 uM after 8 hrs by annexin V assay. The format is functional.

Regarding `C=C(C)[C@@H]1CC[C@]2(C(=O)O)CC[C@]3(C)[C@H](CC[C@@H]4[C@@]5(C)CC[C@H](O)C(C)(C)[C@@H]5CC[C@]43C)[C@@H]12` [BETULINIC ACID], the IC50 (usually the concentration that gives 50% inhibition) with A-375 is 51 µM; with OVCAR-3 it was 59 µM; in the test with SK-MEL-2 [2], 33 µM; in the test with HT-29, 37 µM; in the test with MCF7 it was 50 µM; with Daoy, 31 µM. For the same compound, in test [4], half-maximal inhibition (IC50) required 61 µM. In addition, the Activity in the test on SK-MEL-2 [1] is 70%. For the same compound, the “fold change (FC)” value in the test with SK-MEL-2 [3] worked out at 2.6.

With `CC(C)[C@@H]1CC[C@]2(CO)CC[C@]3(C)[C@H](CC[C@@H]4[C@@]5(C)Cc6cnoc6C(C)(C)[C@@H]5CC[C@]43C)[C@@H]12`, the IC50 was 10 µM with A-375; 75 µM with OVCAR-3; 8 µM in the test on SK-MEL-2 [2]; 75 µM with HT-29; more than 75 µM with MCF7; 7 µM in the test on Daoy. For the same compound, the IC50 in [4] is more than 75 µM.

Regarding `C=C(C)[C@@H]1CC[C@]2(C=O)CC[C@]3(C)[C@H](CC[C@@H]4[C@@]5(C)C=C(C#N)C(=O)C(C)(C)[C@@H]5CC[C@]43C)[C@@H]12`, the IC50 is 7 µM with A-375; more than 75 µM in the test on OVCAR-3; 40 µM with SK-MEL-2 [2]; 49 µM in the test with HT-29; more than 75 µM in the test with MCF7; 13 µM with Daoy. The same compound came in with an IC50 in test [4] of more than 75 µM.

Turning to `C=C(C)[C@@H]1CC[C@]2(CO)CC[C@]3(C)[C@H](CC[C@@H]4[C@@]5(C)Cc6cnoc6C(C)(C)[C@@H]5CC[C@]43C)[C@@H]12`, the IC50 in the test on OVCAR-3 is 60 µM; in the test with SK-MEL-2 [2], 8 µM; in the test on HT-29, 10 µM; in the test with MCF7, 25 µM; with Daoy it was 8 µM; in [4] it was more than 75 µM.

Take `CC(C)[C@@H]1CC[C@]2(COC3CCCCO3)CC[C@]3(C)[C@H](CC[C@@H]4[C@@]5(C)CC(C#N)C(=O)C(C)(C)[C@@H]5CC[C@]43C)[C@@H]12` (some centres undefined): the IC50 is 48 µM in the test with A-375; 25 µM in the test with SK-MEL-2 [2]; more than 75 µM in the test on HT-29; more than 75 µM in the test with MCF7; 21 µM in the test with Daoy; 45 µM in test [4].

As to `C=C(C)[C@@H]1CC[C@]2(CO)CC[C@]3(C)[C@H](CC[C@@H]4[C@@]5(C)C=C(C#N)C(=O)C(C)(C)[C@@H]5CC[C@]43C)[C@@H]12`, the IC50 amounted to 6 µM in the test on A-375; 7 µM in the test on OVCAR-3; 7 µM in the test with SK-MEL-2 [2]; 8 µM in the test with HT-29; 25 µM with MCF7; 8 µM in the test on Daoy. Besides, in [4], the IC50 amounted to 6 µM. Also, the “fold change (FC)” value is reported as 2 in the test with SK-MEL-2 [1] and 8 in the test on SK-MEL-2 [3]. Moreover, the Activity with SK-MEL-2 [5] turned out to be 4%; in the test on SK-MEL-2 [6] it was 24%; in the test on SK-MEL-2 [7], 7%; in the test on SK-MEL-2 [8], 3%.

As for `CC(C)[C@@H]1CC[C@]2(C(=O)O)CC[C@]3(C)[C@H](CC[C@@H]4[C@@]5(C)C=C(C#N)C(=O)C(C)(C)[C@@H]5CC[C@]43C)[C@@H]12`, the IC50 was determined as 16 µM in the test with A-375; 24 µM in the test on OVCAR-3; 59 µM in the test with SK-MEL-2 [2]; 18 µM in the test on HT-29; 59 µM in the test on MCF7; 71 µM in the test on Daoy. In test [4], the midpoint of inhibition, the IC50, lay at 30 µM.

As for `CC(C)[C@@H]1CC[C@]2(CO)CC[C@]3(C)[C@H](CC[C@@H]4[C@@]5(C)C=C(C#N)C(=O)C(C)(C)[C@@H]5CC[C@]43C)[C@@H]12`, the IC50 was 4 µM in the test on A-375; 8 µM in the test with OVCAR-3; 6 µM in the test with SK-MEL-2 [2]; 7 µM in the test on HT-29; more than 75 µM in the test with MCF7; 9 µM in the test with Daoy.

On to `C=C(C)[C@@H]1CC[C@]2(CO)CC[C@]3(C)[C@H](CC[C@@H]4[C@@]5(C)CC(C#N)C(=O)C(C)(C)[C@@H]5CC[C@]43C)[C@@H]12` (some centres undefined), for which the IC50 with A-375 is more than 75 µM; in the test on OVCAR-3, more than 75 µM; in the test on SK-MEL-2 [2], 42 µM; in the test with HT-29 it was 72 µM; with MCF7, 68 µM; with Daoy, 44 µM. In test [4], this compound yielded an IC50 of more than 75 µM.

For the compound `C=C(C)[C@@H]1CC[C@]2(C(=O)O)CC[C@]3(C)[C@H](CC[C@@H]4[C@@]5(C)C=C(C#N)C(=O)C(C)(C)[C@@H]5CC[C@]43C)[C@@H]12`, the IC50 with A-375 is more than 75 µM; in the test with OVCAR-3, more than 75 µM; with SK-MEL-2 [2] it was more than 75 µM; in the test on HT-29 it was 38 µM; in the test with MCF7, more than 75 µM; in the test on Daoy it was more than 75 µM. The IC50 in test [4] is 18 µM.

On to `C=C(C)[C@@H]1CC[C@]2(COC3CCCCO3)CC[C@]3(C)[C@H](CC[C@@H]4[C@@]5(C)C=C(C#N)C(=O)C(C)(C)[C@@H]5CC[C@]43C)[C@@H]12` (some centres undefined), for which the IC50 with A-375 was 12 µM; with OVCAR-3, more than 75 µM; with SK-MEL-2 [2] it was 23 µM; with HT-29, more than 75 µM; in the test on MCF7, more than 75 µM; in the test on Daoy, 14 µM. The compound further came in with an IC50 in [4] of 21 µM.

For the compound `C=C(C)[C@@H]1CC[C@]2(COC3CCCCO3)CC[C@]3(C)[C@H](CC[C@@H]4[C@@]5(C)CC(C#N)C(=O)C(C)(C)[C@@H]5CC[C@]43C)[C@@H]12` (some centres undefined), the IC50 is 38 µM with A-375; more than 75 µM in the test with OVCAR-3; 19 µM in the test with SK-MEL-2 [2]; more than 75 µM with HT-29; 25 µM with MCF7; 29 µM with Daoy. In addition, in test [4], the 50% inhibitory concentration (IC50) is more than 75 µM.
